Measurements from US20260234157A1, “COMPOUND AND METHOD FOR TARGETED DEGRADATION OF ANDROGEN RECEPTOR” (Gan & Lee Pharmaceuticals Co., Ltd., priority 2023, published 2026).
Changes are numbered by the printed parent chain. pIC50: −log10 of the molar value. Like-named read-outs stand apart in the source and are kept apart here.

Experiments:
Format in all cases: cell-based
AR protein [1] = target: T1, AR protein (Homo sapiens, UniProt P10275); experiment: Degradation of AR protein in VCaP cells (Western blot); settings: 8 hours; for inhibition at 0.01 µM: compound at 10 nM, read-out: Degradation rate of the AR protein in VCaP cells, 10 nM (%); for inhibition at 0.1 µM: compound at 100 nM, read-out: Degradation rate of the AR protein in VCaP cells, 100 nM (%)
T1 construct: degradation activity of the compounds disclosed in the present disclosure on AR protein in VCaP cells; host or cells: VCaP
T1 sequence (P10275 1-920): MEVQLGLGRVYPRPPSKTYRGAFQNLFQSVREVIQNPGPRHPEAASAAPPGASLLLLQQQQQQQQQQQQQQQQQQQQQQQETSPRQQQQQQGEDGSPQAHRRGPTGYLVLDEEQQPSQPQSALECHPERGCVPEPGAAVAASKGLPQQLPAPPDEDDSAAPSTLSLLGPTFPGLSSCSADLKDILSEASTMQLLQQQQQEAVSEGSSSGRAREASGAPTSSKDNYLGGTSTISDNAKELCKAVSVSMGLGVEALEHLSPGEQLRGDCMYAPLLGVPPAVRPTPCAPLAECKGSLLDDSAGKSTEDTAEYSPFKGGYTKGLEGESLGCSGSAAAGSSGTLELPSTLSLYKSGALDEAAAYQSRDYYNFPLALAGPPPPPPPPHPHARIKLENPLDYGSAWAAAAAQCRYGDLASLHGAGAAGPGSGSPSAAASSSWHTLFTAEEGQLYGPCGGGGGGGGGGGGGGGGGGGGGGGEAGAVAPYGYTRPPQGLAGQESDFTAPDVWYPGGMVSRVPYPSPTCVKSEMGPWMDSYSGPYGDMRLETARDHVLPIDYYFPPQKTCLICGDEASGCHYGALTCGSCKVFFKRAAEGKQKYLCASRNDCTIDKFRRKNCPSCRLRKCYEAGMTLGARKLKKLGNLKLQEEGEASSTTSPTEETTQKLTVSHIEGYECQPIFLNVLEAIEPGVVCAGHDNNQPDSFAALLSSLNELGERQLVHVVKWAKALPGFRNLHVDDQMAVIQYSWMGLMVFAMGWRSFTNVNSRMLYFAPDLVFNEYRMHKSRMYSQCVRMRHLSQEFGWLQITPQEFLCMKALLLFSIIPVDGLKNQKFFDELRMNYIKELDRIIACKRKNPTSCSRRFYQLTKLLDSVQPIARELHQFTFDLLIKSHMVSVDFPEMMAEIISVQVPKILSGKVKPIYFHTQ
Method in brief: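 Western blot readout: AR band grayscale normalised to GAPDH, used to derive degradation rate. Lysates came from VCaP cells exposed to compound for 8 h, with solvent controls run in parallel.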

VCaP cells = experiment: Inhibition of proliferation of VCaP cells (WST-8); settings: Homo sapiens, read-out: IC50 for inhibiting the proliferation of VCaP cells
Method in brief: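 Proliferation was read by WST-8 on day nine. Cells were VCaP FGC, seeded at 15000 cells per well in 10% FBS DMEM and kept at 37° C with 5% CO2.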

LNCaP FGC cells = experiment: Inhibition of proliferation of LNCaP cells (WST-8); settings: Homo sapiens, LNCaP, 96 h
Protocol: The cells were cultured in a cell culture incubator with 5% CO2 at 37° C. overnight. […] On the sixth day, 96 well plates were taken out, and 20 μL of WST-8 (Beytime, C0040) reagent was added to each well.

AR protein [2] = target: T2, AR protein (Homo sapiens, UniProt P10275, T878A); experiment: Degradation of AR protein in LNCaP cells (Western blot); settings: for inhibition at 0.01 µM: read-out: Degradation rates of the AR protein in LNCaP cells, 10 nM (%); for inhibition at 0.1 µM: read-out: Degradation rates of the AR protein in LNCaP cells, 100 nM (%)
T2 construct: degradation activity of the compounds disclosed in the present disclosure on AR protein in LNCaP cells; host or cells: LNCaP FGC
T2 sequence (P10275 1-920 T878A): T1 sequence (P10275 1-920) with T878A
Method in brief: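 Percent AR degradation was derived from GAPDH-normalised Western blot band intensities (infrared detection) in LNCaP lysates.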

[3] = VCaP cells, 168 hours, WST-8 absorbance at 450 nm
[4] = LNCaP FGC cells, 96 hours, WST-8 absorbance at 450 nm, read-out: IC50 for inhibiting the proliferation of LNCaP cells
[5] = LNCaP cells, compound 10 nM, 8 hours, Western blot grayscale, GAPDH internal reference
[6] = LNCaP cells, compound 100 nM, 8 hours, Western blot grayscale, GAPDH internal reference
[7] = read-out: IC50 for inhibiting the proliferation of LNCaP cells, LNCaP FGC cells, 96 hours, WST-8 absorbance at 450 nm

inhibition at 0.01 µM (AR protein [1]) [%]	inhibition at 0.1 µM (AR protein [1]) [%]	pIC50 (VCaP cells; [3])	pIC50 (LNCaP FGC cells; [4])	inhibition at 0.01 µM (AR protein [2]; [5]) [%]	inhibition at 0.1 µM (AR protein [2]; [6]) [%]	Compound	pIC50 (VCaP cells; VCaP, 168 h)	pIC50 (LNCaP FGC cells; [7])	inhibition at 0.01 µM (AR protein [2]; LNCaP, 8 h) [%]	inhibition at 0.1 µM (AR protein [2]; LNCaP, 8 h) [%]
24	76	9.00	5.68	78	67	N#Cc1ccc(O[C@H]2CC[C@H](NC(=O)c3ccc(N4CCC(CN5CC6(CCc7cc8c(cc7O6)C(=O)N(C6CCC(=O)NC6=O)C8)C5)CC4)nn3)CC2)cc1Cl (stereo partly drawn) [Compound 8]				
9	73	7.72	5.23	18	51	COc1cc(O[C@H]2C(C)(C)[C@H](NC(=O)c3ccc(N4CCC(F)(CN5CCC6(CC5)COc5cc7c(cc5O6)CN(C5CCC(=O)NC5=O)C7=O)CC4)cc3)C2(C)C)ccc1C#N (stereo partly drawn) [Compound 284]				
34	78	8.82	4.35	66	61	COc1cc(O[C@H]2C(C)(C)[C@H](NC(=O)c3ccc(N4CCC(C)(CN5CC6(CCc7cc8c(cc7O6)C(=O)N(C6CCC(=O)NC6=O)C8)C5)CC4)cc3)C2(C)C)ccc1C#N (stereo partly drawn) [Compound 265]				
58	64	6.28	5.44	22	53	N#Cc1ccc(O[C@H]2CC[C@H](NC(=O)c3ccc(N4CC5(CC(N6CCC7(CCc8cc9c(cc8O7)C(=O)N(C7CCC(=O)NC7=O)C9=O)CC6)C5)C4)nn3)CC2)cc1Cl (stereo partly drawn) [Compound 32]				
58	64	6.64	6.22	71	84	N#Cc1ccc(O[C@H]2CC[C@H](NC(=O)c3ccc(N4CC[C@H](CN5CCC6(CCc7cc8c(cc7O6)C(=O)N(C6CCC(=O)NC6=O)C8=O)CC5)C4)nn3)CC2)cc1Cl (stereo partly drawn) [Compound 22]				
56	85	8.60	4.31	53	45	N#Cc1ccc(O[C@H]2CC[C@H](NC(=O)c3ccc(N4CCC5(CC4)CC(C(=O)N4CCC6(CC4)COc4c6ccc6c4CN(C4CCC(=O)NC4=O)C6=O)C5)nn3)CC2)cc1Cl (stereo partly drawn) [Compound 254]				
21	74	8.46	4.66	49	73	COc1cc(O[C@H]2C(C)(C)[C@H](NC(=O)c3ccc(N4CCC(C)(CN5CCC6(CC5)COc5c(ccc7c5C(=O)N(C5CCC(=O)NC5=O)C7)C6)CC4)cc3)C2(C)C)ccc1C#N (stereo partly drawn) [Compound 266]				
4	8	4.93	4.04	25	4	N#Cc1ccc(O[C@H]2CC[C@H](NC(=O)c3ccc(N4CCC(F)(CN5CC6(CCc7ccc8c(c7O6)C(=O)N(C6CCC(=O)NC6=O)C8=O)C5)CC4)nn3)CC2)cc1Cl (stereo partly drawn) [Compound 164]				
24	47	5.52	4.77	-3	14	N#Cc1ccc(O[C@H]2CC[C@H](NC(=O)c3ccc(N4CCC(F)(CN5CCC6(CC5)COc5ccc7c(c5C6)C(=O)N(C5CCC(=O)NC5=O)C7)CC4)nn3)CC2)cc1Cl (stereo partly drawn) [Compound 147]				
75	86	8.00	4.40	46	48	N#Cc1ccc(O[C@H]2CC[C@H](NC(=O)c3ccc(N4CCC5(CC4)CC(N4CCC6(CCc7ccc8c(c7O6)CN(C6CCC(=O)NC6=O)C8=O)CC4)C5)nn3)CC2)cc1Cl (stereo partly drawn) [Compound 154]				

Compound	inhibition at 0.01 µM (AR protein [1]) [%]	inhibition at 0.1 µM (AR protein [1]) [%]	pIC50 (VCaP cells; [3])	pIC50 (LNCaP FGC cells; [4])	inhibition at 0.01 µM (AR protein [2]; [5]) [%]	inhibition at 0.1 µM (AR protein [2]; [6]) [%]	pIC50 (VCaP cells; VCaP, 168 h)	pIC50 (LNCaP FGC cells; [7])	inhibition at 0.01 µM (AR protein [2]; LNCaP, 8 h) [%]	inhibition at 0.1 µM (AR protein [2]; LNCaP, 8 h) [%]
COc1cc(O[C@H]2CC[C@H](NC(=O)c3ccc(N4CCC(O)(CN5CCC6(CC5)COc5c6ccc6c5C(=O)N(C5CCC(=O)NC5=O)C6=O)CC4)nn3)CC2)ccc1C#N (stereo partly drawn) [Compound 215]	63	82	6.30	6.66	86	91				
N#Cc1ccc(O[C@H]2CC[C@H](NC(=O)c3ccc(N4CCC(CN5CCC6(CC5)COc5c6ccc6c5CN(C5CCC(=O)NC5=O)C6=O)(C5CC5)CC4)nn3)CC2)cc1Cl (stereo partly drawn) [Compound 238]	54	79	8.80	7.68	31	61				
COc1cc(O[C@H]2CC[C@H](NC(=O)c3ccc(N4CCC(CN5CCC6(CC5)COc5c6ccc6c5C(=O)N(C5CCC(=O)NC5=O)C6=O)(OC)CC4)cc3)CC2)ccc1C#N (stereo partly drawn) [Compound 219]	11	70					7.22	6.59	-40	21
COc1cc(O[C@H]2CC[C@H](NC(=O)c3ccc(N4CCC(C#N)(CN5CCC6(CC5)COc5c6ccc6c5C(=O)N(C5CCC(=O)NC5=O)C6=O)CC4)nn3)CC2)ccc1C#N (stereo partly drawn) [Compound 229]	33	73	7.82	6.48	49	59				
N#Cc1ccc(O[C@H]2CC[C@H](NC(=O)c3ccc(N4CCC(N5CCC6(CC5)COc5cc7c(cc56)C(=O)N(C5CCC(=O)NC5=O)C7=O)CC4)nn3)CC2)cc1Cl (stereo partly drawn) [Compound 48]	69	82					6.74	5.78	73	91
